Test results taken from US20060235076A1, “Medicinal composition for treating infection with drug-resistant staphylococcus aureus” (priority 2003, published 2006).
Values after ≈ are worked out from the molar mass of the structure shown. Like-named read-outs stand apart in the source and are kept apart here.

How the values were obtained:
MRSA = assay: Potentiating effect of galloyl quinic acid derivatives for the antibacterial activity of oxacillin (agar plate dilution method, MIC); format: cell-based, Staphylococcus aureus
Method: (§1) According to the agar plate dilution method defined by Japan Society of Chemotherapy, MIC (Minimum inhibitory concentration) was determined. CAMHA was prepared by adding 50 mg/l of Ca-ion, 25 mg/l of Mg-ion, and 2% of NaCl to Mueller-Hinton II Agar (MHA), and it was used as a medium for use in the measurement of sensitivity. The bacterial liquid was incubated at 37° C. overnight and diluted to 10^6 CFU/ml with saline.
It was confirmed that the known substances shown below were contained in “Tara” and their MICs were determined as described in example 2 with respect to the effects of the combination use with oxacillin

MRSA and MSSA = assay: Antibacterial activity of gallic acid, various gallates and multivalent phenol derivatives alone (agar plate dilution method, MIC); format: cell-based, Staphylococcus aureus; settings: Staphylococcus aureus, compound alone; for MIC: read-out: MIC
Method: as §1
MIC for gallic acid, various gallates and multivalent phenol derivatives alone with MRSA and MSSA were determined as described in experiment 2.

## O=C(OC1CC(O)(C(=O)O)CC(O)C1OC(=O)c1cc(O)c(O)c(O)c1)c1cc(O)c(O)c(O)c1 (stereo not drawn) [compound 4]
MRSA; ATCC 6538, with 12.5 μg/ml of compound
  Oxacillin MIC: <0.5 µg/mL
MRSA; ATCC 6538, with 25 μg/ml of compound
  Oxacillin MIC: <0.5 µg/mL
MRSA; ATCC 6538, with 50 μg/ml of compound
  Oxacillin MIC: <0.5 µg/mL
MRSA; MRSA 1, with 12.5 μg/ml of compound
  Oxacillin MIC: >256 µg/mL
MRSA; MRSA 1, with 25 μg/ml of compound
  Oxacillin MIC: >256 µg/mL
MRSA; MRSA 1, with 50 μg/ml of compound
  Oxacillin MIC: >256 µg/mL
MRSA; MRSA 2, with 12.5 μg/ml of compound
  Oxacillin MIC: >256 µg/mL
MRSA; MRSA 2, with 25 μg/ml of compound
  Oxacillin MIC: 256 µg/mL
MRSA; MRSA 2, with 50 μg/ml of compound
  Oxacillin MIC: 256 µg/mL
MRSA; MRSA 3, with 12.5 μg/ml of compound
  Oxacillin MIC: 256 µg/mL
MRSA; MRSA 3, with 25 μg/ml of compound
  Oxacillin MIC: 256 µg/mL
MRSA; MRSA 3, with 50 μg/ml of compound
  Oxacillin MIC: 128 µg/mL
MRSA; MRSA 4, with 12.5 μg/ml of compound
  Oxacillin MIC: >256 µg/mL
MRSA; MRSA 4, with 25 μg/ml of compound
  Oxacillin MIC: >256 µg/mL
MRSA; MRSA 4, with 50 μg/ml of compound
  Oxacillin MIC: >256 µg/mL
MRSA; MRSA 5, with 12.5 μg/ml of compound
  Oxacillin MIC: >256 µg/mL
MRSA; MRSA 5, with 25 μg/ml of compound
  Oxacillin MIC: ≅256 μg/ml
MRSA; MRSA 5, with 50 μg/ml of compound
  Oxacillin MIC: >256 µg/mL
MRSA; MRSA 6, with 12.5 μg/ml of compound
  Oxacillin MIC: 256 µg/mL
MRSA; MRSA 6, with 25 μg/ml of compound
  Oxacillin MIC: 256 µg/mL
MRSA; MRSA 6, with 50 μg/ml of compound
  Oxacillin MIC: 128 µg/mL
MRSA; MRSA 7, with 12.5 μg/ml of compound
  Oxacillin MIC: >256 µg/mL
MRSA; MRSA 7, with 25 μg/ml of compound
  Oxacillin MIC: >256 µg/mL
MRSA; MRSA 7, with 50 μg/ml of compound
  Oxacillin MIC: >256 µg/mL
MRSA; MRSA 8, with 12.5 μg/ml of compound
  Oxacillin MIC: 256 µg/mL
MRSA; MRSA 8, with 25 μg/ml of compound
  Oxacillin MIC: 128 µg/mL
MRSA; MRSA 8, with 50 μg/ml of compound
  Oxacillin MIC: 128 µg/mL
MRSA; MRSA 9, with 12.5 μg/ml of compound
  Oxacillin MIC: >256 µg/mL
MRSA; MRSA 9, with 25 μg/ml of compound
  Oxacillin MIC: >256 µg/mL
MRSA; MRSA 9, with 50 μg/ml of compound
  Oxacillin MIC: >256 µg/mL
MRSA; MRSA 10, with 12.5 μg/ml of compound
  Oxacillin MIC: 128 µg/mL
MRSA; MRSA 10, with 25 μg/ml of compound
  Oxacillin MIC: 128 µg/mL
MRSA; MRSA 10, with 50 μg/ml of compound
  Oxacillin MIC: 128 µg/mL
MRSA; MRSA 12, with 12.5 μg/ml of compound
  Oxacillin MIC: >256 µg/mL
MRSA; MRSA 12, with 25 μg/ml of compound
  Oxacillin MIC: >256 µg/mL
MRSA; MRSA 12, with 50 μg/ml of compound
  Oxacillin MIC: >256 µg/mL
MRSA; MRSA 16, with 12.5 μg/ml of compound
  Oxacillin MIC: >256 µg/mL
MRSA; MRSA 16, with 25 μg/ml of compound
  Oxacillin MIC: >256 µg/mL
MRSA; MRSA 16, with 50 μg/ml of compound
  Oxacillin MIC: >256 µg/mL
MRSA; MRSA 17, with 12.5 μg/ml of compound
  Oxacillin MIC: 256 µg/mL
MRSA; MRSA 17, with 25 μg/ml of compound
  Oxacillin MIC: 256 µg/mL
MRSA; MRSA 17, with 50 μg/ml of compound
  Oxacillin MIC: 256 µg/mL
MRSA; MRSA 18, with 12.5 μg/ml of compound
  Oxacillin MIC: >256 µg/mL
MRSA; MRSA 18, with 25 μg/ml of compound
  Oxacillin MIC: >256 µg/mL
MRSA; MRSA 18, with 50 μg/ml of compound
  Oxacillin MIC: >256 µg/mL
MRSA; MRSA 20, with 12.5 μg/ml of compound
  Oxacillin MIC: 32 µg/mL
MRSA; MRSA 20, with 25 μg/ml of compound
  Oxacillin MIC: 16 µg/mL
MRSA; MRSA 20, with 50 μg/ml of compound
  Oxacillin MIC: 16 µg/mL
MRSA; MRSA 21, with 12.5 μg/ml of compound
  Oxacillin MIC: 128 µg/mL
MRSA; MRSA 21, with 25 μg/ml of compound
  Oxacillin MIC: 128 µg/mL
MRSA; MRSA 21, with 50 μg/ml of compound
  Oxacillin MIC: 64 µg/mL
MRSA; MRSA 22, with 12.5 μg/ml of compound
  Oxacillin MIC: 64 µg/mL
MRSA; MRSA 22, with 25 μg/ml of compound
  Oxacillin MIC: 64 µg/mL
MRSA; MRSA 22, with 50 μg/ml of compound
  Oxacillin MIC: 64 µg/mL
MRSA; MRSA COL, with 12.5 μg/ml of compound
  Oxacillin MIC: >256 µg/mL
MRSA; MRSA COL, with 25 μg/ml of compound
  Oxacillin MIC: >256 µg/mL
MRSA; MRSA COL, with 50 μg/ml of compound
  Oxacillin MIC: >256 µg/mL
MRSA; MSSA 1003, with 12.5 μg/ml of compound
  Oxacillin MIC: <0.5 µg/mL
MRSA; MSSA 1003, with 25 μg/ml of compound
  Oxacillin MIC: <0.5 µg/mL
MRSA; MSSA 1003, with 50 μg/ml of compound
  Oxacillin MIC: <0.5 µg/mL
MRSA; MSSA 1010, with 12.5 μg/ml of compound
  Oxacillin MIC: <0.5 µg/mL
MRSA; MSSA 1010, with 25 μg/ml of compound
  Oxacillin MIC: <0.5 µg/mL
MRSA; MSSA 1010, with 50 μg/ml of compound
  Oxacillin MIC: <0.5 µg/mL
MRSA; MSSA 1032, with 12.5 μg/ml of compound
  Oxacillin MIC: <0.5 µg/mL
MRSA; MSSA 1032, with 25 μg/ml of compound
  Oxacillin MIC: <0.5 µg/mL
MRSA; MSSA 1032, with 50 μg/ml of compound
  Oxacillin MIC: <0.5 µg/mL
MRSA; RN4220, with 12.5 μg/ml of compound
  Oxacillin MIC: <0.5 µg/mL
MRSA; RN4220, with 25 μg/ml of compound
  Oxacillin MIC: <0.5 µg/mL
MRSA; RN4220, with 50 μg/ml of compound
  Oxacillin MIC: <0.5 µg/mL

## COC(=O)C1(O)CC(OC(=O)c2cc(O)c(O)c(O)c2)C(OC(=O)c2cc(O)c(O)c(O)c2)C(OC(=O)c2cc(O)c(O)c(O)c2)C1 (stereo not drawn) [Methyl 3,4,5-trigalloylquinate, methyl 3,4,5-trigalloylquinate]
MRSA
  effect of combination use with oxacillin (words): weak effects

## COC(=O)C1(O)CC(O)C(OC(=O)c2cc(O)c(O)c(O)c2)C(OC(=O)c2cc(O)c(O)c(O)c2)C1 (stereo not drawn) [Methyl 4,5-digalloylquinate, methyl 4,5-digalloylquinate]
MRSA
  effect of combination use with oxacillin (words): follows
MRSA; listed as methyl 4,5-digalloylquinate
  effect of combination use with oxacillin (words): excellent

## CC(=O)c1ccc(O)c(O)c1O [2′,3′,4′-trihydroxyacetophenone]
MRSA and MSSA; ATCC 6538 / MRSA / MSSA, ATCC6538
  MIC: 62.5 µg/mL (≈ 372 µM)
MRSA and MSSA; COL
  MIC: 62.5 µg/mL (≈ 372 µM)
MRSA and MSSA; MRSA #1
  MIC: 62.5 µg/mL (≈ 372 µM)
MRSA and MSSA; MRSA #2
  MIC: 62.5 µg/mL (≈ 372 µM)
MRSA and MSSA; MRSA #3
  MIC: 62.5 µg/mL (≈ 372 µM)
MRSA and MSSA; MRSA #4
  MIC: 62.5 µg/mL (≈ 372 µM)
MRSA and MSSA; MRSA #5
  MIC: 62.5 µg/mL (≈ 372 µM)
MRSA and MSSA; MRSA #6
  MIC: 31.3 µg/mL (≈ 186 µM)
MRSA and MSSA; MRSA #7
  MIC: 62.5 µg/mL (≈ 372 µM)
MRSA and MSSA; MRSA #8
  MIC: 62.5 µg/mL (≈ 372 µM)
MRSA and MSSA; MRSA #9
  MIC: 62.5 µg/mL (≈ 372 µM)
MRSA and MSSA; MRSA #10
  MIC: 31.3 µg/mL (≈ 186 µM)
MRSA and MSSA; MRSA #12
  MIC: 62.5 µg/mL (≈ 372 µM)
MRSA and MSSA; MRSA #16
  MIC: 62.5 µg/mL (≈ 372 µM)
MRSA and MSSA; MRSA #17
  MIC: 62.5 µg/mL (≈ 372 µM)
MRSA and MSSA; MRSA #18
  MIC: 62.5 µg/mL (≈ 372 µM)
MRSA and MSSA; MRSA #20
  MIC: 62.5 µg/mL (≈ 372 µM)
MRSA and MSSA; MRSA #21
  MIC: 62.5 µg/mL (≈ 372 µM)
MRSA and MSSA; MRSA #22
  MIC: 62.5 µg/mL (≈ 372 µM)
MRSA and MSSA; MRSA #24
  MIC: 62.5 µg/mL (≈ 372 µM)
MRSA and MSSA; MSSA #1003
  MIC: 62.5 µg/mL (≈ 372 µM)
MRSA and MSSA; MSSA #1010
  MIC: 62.5 µg/mL (≈ 372 µM)
MRSA and MSSA; MSSA #1020
  MIC: 62.5 µg/mL (≈ 372 µM)
MRSA and MSSA; MSSA #1023
  MIC: 31.3 µg/mL (≈ 186 µM)
MRSA and MSSA; MSSA #1029
  MIC: 31.3 µg/mL (≈ 186 µM)
MRSA and MSSA; MSSA #1032
  MIC: 62.5 µg/mL (≈ 372 µM)
MRSA and MSSA; over all strains of Table 3-2, read-out: MIC50
  MIC50: 62.5 µg/mL (≈ 372 µM)
